# Source: publication PMC6930555, “Design, Synthesis, and Structural Characterization of Novel Diazaphenothiazines with 1,2,3-Triazole Substituents as Promising Antiproliferative Agents” (Molecules, 2019)
# What was measured:
# [1] = tested on: SNB-19, Caco-2, A549 and MDA-MB231 cancer cell lines; assay: WST-1 assay, summary over the cancer cell line panel; type: cell-based, human; details: Homo sapiens; span over SNB-19, Caco-2, A549, MDA-MB231; read-out: IC50 across all investigated cancer cell lines
# Method: (§1) The antiproliferative activity of all 20 new 10-substituted 1,2,3-triazole derivatives of dipyridothiazines was tested in vitro against cancer cell lines: glioblastoma SNB-19, colorectal carcinoma Caco-2, lung cancer A549, and breast cancer MDA-MB231 using the WST-1 assay. Normal human fibroblasts NHDF were used as a control.
# (§2) All dipyridothiazines with 1,2,3-triazole substituents (1–4)b–f were evaluated for their anticancer activity using four cultured cell lines: SNB-19 (human glioblastoma, DSMZ—German Collection of Microorganisms and Cell Cultures, Braunschweig, Germany), Caco-2 (human colon adenocarcinoma, DSMZ—German Collection of Microorganisms and Cell Cultures, Braunschweig, Germany), A549 (human lung carcinoma, ATCC, Manassas, VA, USA) and MDA-MB231 (human breast adenocarcinoma, ATCC, Manassas, VA, USA), and NHDF (human dermal fibroblast cell line, ATCC, Manassas, VA, USA. The cultured cells were kept at 37 °C and 5% CO2. The cells were seeded (1 × 10^4 cells/well/100 µL DMEM supplemented with 10% FCS and streptomycin and penicillin) using 96-well plates (Corning). The cells were counted in a hemocytometer (Burker’s chamber) using a phase contrast Olympus IX50 microscope equipped with Sony SSC-DC58 AP camera and Olympus DP10 digital camera.
# (§3) Antiproliferative effect of the obtained compounds on the cancer cells was determined using the cell proliferation reagent WST-1 assay (Roche Diagnostics, Mannheim, Germany). This assay is based on the viable cell’s ability to cleave the bright red-colored tetrazolium salt (2-(4-iodophenyl)-3-(4-nitrophenyl)-5-(2,4-disulfophenyl)-2H-tetrazolium, monosodium salt) to dark red soluble formazan by cellular enzymes. An increase in the amount of formazan dye formed correlates to the number of metabolically active cells in the culture. The formazan dye produced by metabolically active cells is quantified by a scanning ELISA reader by measuring the absorbance of the dye solution at appropriate wavelengths. The examined cells were exposed to the tested compounds for 72 h at various concentrations between 0.1 μg/mL and 100 μg/mL (prepared initially at concentration of 1 mg/mL in DMSO). The cells were incubated with WST-1 (10 μL) for 1 h and the absorbance of the samples against a background control was measured at 450 nm using a microplate reader with a reference wavelength at 600 nm. The results are expressed as means of at least two independent experiments performed in triplicate.
# glioblastoma SNB-19 = assay: WST-1 cell proliferation assay, SNB-19; type: cell-based, human; details: Homo sapiens; SNB-19, WST-1, 72 h; read-out: Anticancer Activity IC50 SNB-19
# Method: as §1, with “Encouraged by our previous promising results in the field of antiproliferative activity of dipyridothiazines as well as by the good anticancer activity of the 1,2,3-triazoles, we decided to combine the biological potentials of dipyridothiazines and triazole moieties, hoping to obtain compounds with better activity. The” for “The”
# as §2, §3
# [2] = tested on: H3, TP53, CDKN1A, BCL-2 and BAX genes in glioblastoma SNB-19; assay: RT-qPCR gene expression, SNB-19; type: cell-based, human; details: SNB-19, 0.5 µg/mL, 24 h
# Method: (§4) In this method the gene transcriptional activities of proliferation marker (H3), cell cycle regulator (TP53 and CDKNIA), and intracellular apoptosis pathway (BCL-2 and BAX) were analyzed. It has been known that the growth, metabolism, and eventual death of the cells in the body are controlled by hundreds of genes working together. The gene encoding histone H3 plays a crucial role in regulation of the expression of the genetic information included in the DNA.
# (§5) Genes trancriptional activity (H3, TP53, CDKN1A, BCL-2, and BAX) was evaluated by real time RT-qPCR with OPTICON TM DNA Engine (MJ Research, Watertown, MA, USA) and QuantTect® SYBR® Green RT-PCR Kit (Quiagen, Valencia, CA). Cells were exposed to compound 4 at a 0.5 µg/mL concentration for 24 h. The RNA extraction was made by using Quick-RNA™ Kit MiniPrep (ZYMO […]). Total RNA integrity was analysed in 1.2% agarose electrophoresis with added ethidium bromide. The quantity and purity of extracted total RNA were determined by using spectrophotometric analysis with HP845 (Hewlett Packard, Waldbronn, Germany) spectrophotometer. The statistical analysis was performed using the Statistica 8.0 software. All values were expressed as means ± SE.
# [3] = tested on: normal human fibroblasts NHDF; assay: WST-1 cytotoxicity assay, normal fibroblasts NHDF; type: cell-based
# Method: as §1, with “Encouraged by our previous promising results in the field of antiproliferative activity of dipyridothiazines as well as by the good anticancer activity of the 1,2,3-triazoles, we decided to combine the biological potentials of dipyridothiazines and triazole moieties, hoping to obtain compounds with better activity. The” for “The”
# as §2, §3
# [4] = tested on: H3, TP53, CDKN1A, BCL-2 and BAX genes in breast cancer MDA-MB231; assay: RT-qPCR gene expression, MDA-MB231; type: cell-based, human
# Method: as §4, §5
# breast cancer MDA-MB231 = assay: WST-1 cell proliferation assay, MDA-MB231; type: cell-based, human; details: Homo sapiens, MDA-MB-231; MDA-MB231, WST-1, 72 h; read-out: Anticancer Activity IC50 MDA-MB231
# Method: as §1, with “Encouraged by our previous promising results in the field of antiproliferative activity of dipyridothiazines as well as by the good anticancer activity of the 1,2,3-triazoles, we decided to combine the biological potentials of dipyridothiazines and triazole moieties, hoping to obtain compounds with better activity. The” for “The”
# as §2, §3
# [5] = tested on: H3, TP53, CDKN1A, BCL-2 and BAX genes in colorectal carcinoma Caco-2; assay: RT-qPCR gene expression, Caco-2; type: cell-based, human
# Method: as §4, §5
# [6] = tested on: H3, TP53, CDKN1A, BCL-2 and BAX genes in lung cancer A549; assay: RT-qPCR gene expression, A549; type: cell-based, human; details: A549, 0.5 µg/mL, 24 h
# Method: as §4, §5
# [7] = tested on: H3, TP53, CDKN1A, BCL-2 and BAX genes in SNB-19, Caco-2, A549 and MDA-MB231; assay: RT-qPCR gene expression, summary over the cancer cell lines; type: cell-based, human
# Method: as §4, §5
# [8] = tested on: colorectal carcinoma Caco-2; assay: WST-1 cell proliferation assay, Caco-2; type: cell-based; details: Homo sapiens; Caco-2, WST-1, 72 h; read-out: Anticancer Activity IC50 Caco-2
# Method: as §1, §2, §3
# lung cancer A549 = assay: WST-1 cell proliferation assay, A549; type: cell-based, human; details: Homo sapiens; A549, WST-1, 72 h; read-out: Anticancer Activity IC50 A549
# Method: as §1, with “Encouraged by our previous promising results in the field of antiproliferative activity of dipyridothiazines as well as by the good anticancer activity of the 1,2,3-triazoles, we decided to combine the biological potentials of dipyridothiazines and triazole moieties, hoping to obtain compounds with better activity. The” for “The”
# as §2, §3
smiles,measurement,setting,value
"Clc1ccc(Cn2cc(CN3c4cccnc4Sc4cccnc43)nn2)cc1 [1d, 10-[(1-(4-Chlorobenzyl)-1H-1,2,3-triazol-4-yl)methyl]-1,6-diazaphenothiazine]",IC50,[1],0.25 to 4.66 µM
same,IC50,glioblastoma SNB-19,4.66 µM
same,BAX number of mRNA copies/μg total RNA,[2],220+/−18 mRNA Copies/μg Total RNA
same,BCL-2 number of mRNA copies/μg total RNA,[2],17497+/−4607 mRNA Copies/μg Total RNA
same,CDKN1A number of mRNA copies/μg total RNA,[2],308+/−51 mRNA Copies/μg Total RNA
same,H3 number of mRNA copies/μg total RNA,[2],52+/−11 mRNA Copies/μg Total RNA
same,TP53 number of mRNA copies/μg total RNA,[2],128+/−24 mRNA Copies/μg Total RNA
same,cytotoxicity against normal human fibroblasts (in words),[3]; NHDF,relatively low cytotoxicity
same,IC50,"[3]; normal human fibroblasts NHDF, WST-1, 72 h",> 100 µM
same,apoptosis pathway from gene expression ratio BCL-2/BAX (in words),[4]; MDA-MB231,activation of the mitochondrial apoptosis
same,BAX number of mRNA copies/μg total RNA,"[4]; MDA-MB231, 0.5 µg/mL, 24 h",221+/−16 mRNA Copies/μg Total RNA
same,BCL-2 number of mRNA copies/μg total RNA,"[4]; MDA-MB231, 0.5 µg/mL, 24 h",16495+/−4607 mRNA Copies/μg Total RNA
same,CDKN1A number of mRNA copies/μg total RNA,"[4]; MDA-MB231, 0.5 µg/mL, 24 h",577+/−308 mRNA Copies/μg Total RNA
same,H3 number of mRNA copies/μg total RNA,"[4]; MDA-MB231, 0.5 µg/mL, 24 h",8+/−6 mRNA Copies/μg Total RNA
same,TP53 number of mRNA copies/μg total RNA,"[4]; MDA-MB231, 0.5 µg/mL, 24 h",46+/−20 mRNA Copies/μg Total RNA
same,IC50,breast cancer MDA-MB231,0.51 µM
same,effect on expression of BCL-2 (in words),[5]; Caco-2,slight increase
same,BAX number of mRNA copies/μg total RNA,"[5]; Caco-2, 0.5 µg/mL, 24 h",969+/−264 mRNA Copies/μg Total RNA
same,BCL-2/BAX gene expression ratio,"[5]; Caco-2, 0.5 µg/mL, 24 h",743
same,BCL-2 number of mRNA copies/μg total RNA,"[5]; Caco-2, 0.5 µg/mL, 24 h",723708+/−217134 mRNA Copies/μg Total RNA
same,CDKN1A number of mRNA copies/μg total RNA,"[5]; Caco-2, 0.5 µg/mL, 24 h",260+/−21 mRNA Copies/μg Total RNA
same,H3 number of mRNA copies/μg total RNA,"[5]; Caco-2, 0.5 µg/mL, 24 h",45+/−3 mRNA Copies/μg Total RNA
same,TP53 number of mRNA copies/μg total RNA,"[5]; Caco-2, 0.5 µg/mL, 24 h",193+/−16 mRNA Copies/μg Total RNA
same,BAX number of mRNA copies/μg total RNA,[6],835+/−231 mRNA Copies/μg Total RNA
same,BCL-2/BAX gene expression ratio,[6],18
same,BCL-2 number of mRNA copies/μg total RNA,[6],15631+/−2296 mRNA Copies/μg Total RNA
same,CDKN1A number of mRNA copies/μg total RNA,[6],969+/−137 mRNA Copies/μg Total RNA
same,H3 number of mRNA copies/μg total RNA,[6],18+/−5 mRNA Copies/μg Total RNA
same,TP53 number of mRNA copies/μg total RNA,[6],54+/−19 mRNA Copies/μg Total RNA
same,effect on expression of BCL-2 (in words),"[7]; SNB-19, A549 and MDA-MB231",remarkably reduced
same,effect on CDKN1A copies (in words),[7]; all cancer cells,strong decline
same,effect on mRNA copy number of the histone H3 gene (in words),[7]; all cancer lines,strongly changed
same,effect on expression of BAX (in words),[7]; all investigated cancer cell lines,decrease
same,effect on amount of mRNA copies of TP53 (in words),[7]; all investigated cancer lines,significantly interfered
same,IC50,[8],0.25 µM
same,IC50,lung cancer A549,0.25 µM
